Data reported in publication PMC10504751, “Chalcone/1,3,4-Oxadiazole/Benzimidazole hybrids as novel anti-proliferative agents inducing apoptosis and inhibiting EGFR & BRAFV^600E” (BMC Chemistry, 2023).

Assays:
Assay in all cases: NCI one-dose SRB anti-proliferative screen
Format in all cases: cell-based
ACHN = details: Homo sapiens; ACHN, Renal cancer; NCI one dose; read-out: Cell growth inhibition %
Summary of the method: (§1)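 Activity reflects a single-point exposure at 10 µM, with cell mass determined by a sulforhodamine B dye assay.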

BT-549 = details: Homo sapiens; BT-549, Breast cancer; NCI one dose; read-out: Cell growth inhibition %
Summary of the method: as §1

CCRF-CEM = details: Homo sapiens; CCRF-CEM, Leukemia; NCI one dose; read-out: Cell growth inhibition %
Summary of the method: as §1

EKVX = details: Homo sapiens; EKVX, Non-Small Cell Lung Cancer; NCI one dose; read-out: Cell growth inhibition %
Summary of the method: as §1

HL-60(TB) = details: Homo sapiens; HL-60(TB), Leukemia; NCI one dose; read-out: Cell growth inhibition %
Summary of the method: as §1

HOP-62 = details: Homo sapiens; HOP-62, Non-Small Cell Lung Cancer; NCI one dose; read-out: Cell growth inhibition %
Summary of the method: as §1

HT29 = details: Homo sapiens, HT-29; HT29, Colon cancer; NCI one dose; read-out: Cell growth inhibition %
Summary of the method: as §1

LOX IMVI = details: Homo sapiens, Melanoma, NCI one dose, read-out: Cell growth inhibition %
Summary of the method: as §1

MALME-3M = details: Homo sapiens; MALME-3M, Melanoma; NCI one dose; read-out: Cell growth inhibition %
Summary of the method: as §1

MDA-MB-435 = details: Homo sapiens; MDA-MB-435, Melanoma; NCI one dose; read-out: Cell growth inhibition %
Summary of the method: as §1

MDA-MB-468 = details: Homo sapiens; MDA-MB-468, Breast cancer; NCI one dose; read-out: Cell growth inhibition %
Summary of the method: as §1

NCI-H226 = details: Homo sapiens; NCI-H226, Non-Small Cell Lung Cancer; NCI one dose; read-out: Cell growth inhibition %
Summary of the method: as §1

NCI-H460 = details: Homo sapiens; NCI-H460, Non-Small Cell Lung Cancer; NCI one dose; read-out: Cell growth inhibition %
Summary of the method: as §1

NCI/ADR-RES = details: Homo sapiens; NCI/ADR-RES, Ovarian Cancer; NCI one dose; read-out: Cell growth inhibition %
Summary of the method: as §1

OVCAR-4 = details: Homo sapiens; OVCAR-4, Ovarian Cancer; NCI one dose; read-out: Cell growth inhibition %
Summary of the method: as §1

OVCAR-5 = details: Homo sapiens; OVCAR-5, Ovarian Cancer; NCI one dose; read-out: Cell growth inhibition %
Summary of the method: as §1

OVCAR-8 = details: Homo sapiens; OVCAR-8, Ovarian Cancer; NCI one dose; read-out: Cell growth inhibition %
Summary of the method: as §1

PC-3 = details: Homo sapiens; PC-3, Prostate Cancer; NCI one dose; read-out: Cell growth inhibition %
Summary of the method: as §1

RPMI-8226 = details: Homo sapiens; RPMI-8226, Leukemia; NCI one dose; read-out: Cell growth inhibition %
Summary of the method: as §1

SF-539 = details: Homo sapiens; SF-539, CNS Cancer; NCI one dose; read-out: Cell growth inhibition %
Summary of the method: as §1

SK-MEL-28 = details: Homo sapiens; SK-MEL-28, Melanoma; NCI one dose; read-out: Cell growth inhibition %
Summary of the method: as §1

SK-MEL-5 = details: Homo sapiens; SK-MEL-5, Melanoma; NCI one dose; read-out: Cell growth inhibition %
Summary of the method: as §1

SK-OV-3 = details: Homo sapiens; SK-OV-3, Ovarian Cancer; NCI one dose; read-out: Cell growth inhibition %
Summary of the method: as §1

SN12C = details: Homo sapiens, SN 12C, Renal cancer, NCI one dose, read-out: Cell growth inhibition %
Summary of the method: as §1

SNB-19 = details: Homo sapiens; SNB-19, CNS Cancer; NCI one dose; read-out: Cell growth inhibition %
Summary of the method: as §1

SR = details: Homo sapiens; SR, Leukemia; NCI one dose; read-out: Cell growth inhibition %
Summary of the method: as §1

SW-620 = details: Homo sapiens; SW-620, Colon cancer; NCI one dose; read-out: Cell growth inhibition %
Summary of the method: as §1

TK-10 = details: Homo sapiens; TK-10, Renal cancer; NCI one dose; read-out: Cell growth inhibition %
Summary of the method: as §1

UACC-257 = details: Homo sapiens; UACC-257, Melanoma; NCI one dose; read-out: Cell growth inhibition %
Summary of the method: as §1

UACC-62 = details: Homo sapiens; UACC-62, Melanoma; NCI one dose; read-out: Cell growth inhibition %
Summary of the method: as §1

UO-31 = details: Homo sapiens; UO-31, Renal cancer; NCI one dose; read-out: Cell growth inhibition %
Summary of the method: as §1

O=C(CSc1nnc(-c2ccc3[nH]c(-c4ccccc4)nc3c2)o1)Nc1ccc(C(=O)/C=C/c2ccccc2)cc1 [Compound 7a, 2-{5-[2-Phenyl-1 H-benzo[d]imidazol-5-yl]-1,3,4-oxadiazol-2-ylthio}-N-{4-[(E)-3-phenylacryloyl]phenyl}acetamide]
inhibition at 10 µM (ACHN): 0%
inhibition at 10 µM (BT-549): 3.16%
inhibition at 10 µM (CCRF-CEM): 0%
inhibition at 10 µM (EKVX): 0%
inhibition at 10 µM (HL-60(TB)): 0%
inhibition at 10 µM (HOP-62): 0%
inhibition at 10 µM (HT29): 0%
inhibition at 10 µM (LOX IMVI): 2.69%
inhibition at 10 µM (MALME-3M): 5.5%
inhibition at 10 µM (MDA-MB-435): 0%
inhibition at 10 µM (MDA-MB-468): 0%
inhibition at 10 µM (NCI-H226): 0%
inhibition at 10 µM (NCI-H460): 0%
inhibition at 10 µM (NCI/ADR-RES): 0%
inhibition at 10 µM (OVCAR-4): 0%
inhibition at 10 µM (OVCAR-5): 0%
inhibition at 10 µM (OVCAR-8): 0.04%
inhibition at 10 µM (PC-3): 0%
inhibition at 10 µM (RPMI-8226): 5.75%
inhibition at 10 µM (SF-539): 3.15%
inhibition at 10 µM (SK-MEL-28): 0%
inhibition at 10 µM (SK-MEL-5): 1.68%
inhibition at 10 µM (SK-OV-3): 0%
inhibition at 10 µM (SN12C): 2.04%
inhibition at 10 µM (SNB-19): 0.06%
inhibition at 10 µM (SR): 0%
inhibition at 10 µM (SW-620): 0%
inhibition at 10 µM (TK-10): 0%
inhibition at 10 µM (UACC-257): 0%
inhibition at 10 µM (UACC-62): 2.91%
inhibition at 10 µM (UO-31): 12.6%

O=C(CSc1nnc(-c2ccc3[nH]c(-c4ccccc4)nc3c2)o1)Nc1ccc(C(=O)/C=C/c2ccc(Cl)cc2)cc1 [Compound 7b, 2-{5-[2-Phenyl-1 H-benzo[d]imidazol-5-yl]-1,3,4-oxadiazol-2-ylthio}-N-{4-[(E)-3-(4-chlorophenyl)acryloyl]phenyl}acetamide]
inhibition at 10 µM (ACHN): 0%
inhibition at 10 µM (BT-549): 1.92%
inhibition at 10 µM (CCRF-CEM): 0%
inhibition at 10 µM (EKVX): 0%
inhibition at 10 µM (HL-60(TB)): 0%
inhibition at 10 µM (HOP-62): 0%
inhibition at 10 µM (HT29): 0%
inhibition at 10 µM (LOX IMVI): 12.9%
inhibition at 10 µM (MALME-3M): 0%
inhibition at 10 µM (MDA-MB-435): 0%
inhibition at 10 µM (MDA-MB-468): 0%
inhibition at 10 µM (NCI-H226): 3.63%
inhibition at 10 µM (NCI-H460): 0%
inhibition at 10 µM (NCI/ADR-RES): 0%
inhibition at 10 µM (OVCAR-4): 0%
inhibition at 10 µM (OVCAR-5): 0%
inhibition at 10 µM (OVCAR-8): 2.36%
inhibition at 10 µM (PC-3): 0.53%
inhibition at 10 µM (RPMI-8226): 12.2%
inhibition at 10 µM (SF-539): 4.06%
inhibition at 10 µM (SK-MEL-28): 0%
inhibition at 10 µM (SK-MEL-5): 3.35%
inhibition at 10 µM (SK-OV-3): 0%
inhibition at 10 µM (SN12C): 9.8%
inhibition at 10 µM (SNB-19): 3.92%
inhibition at 10 µM (SR): 3.59%
inhibition at 10 µM (SW-620): 0%
inhibition at 10 µM (TK-10): 0%
inhibition at 10 µM (UACC-257): 0%
inhibition at 10 µM (UACC-62): 11.6%
inhibition at 10 µM (UO-31): 25.5%

COc1ccc(/C=C/C(=O)c2ccc(NC(=O)CSc3nnc(-c4ccc5[nH]c(-c6ccccc6)nc5c4)o3)cc2)cc1 [Compound 7c, 2-{5-[2-Phenyl-1 H-benzo[d]imidazol-5-yl]-1,3,4-oxadiazol-2-ylthio}-N-{4-[(E)-3-(4-methoxyphenyl)acryloyl]phenyl}acetamide]
inhibition at 10 µM (ACHN): 2.58%
inhibition at 10 µM (BT-549): 18.7%
inhibition at 10 µM (CCRF-CEM): 34.5%
inhibition at 10 µM (EKVX): 0%
inhibition at 10 µM (HL-60(TB)): 5.24%
inhibition at 10 µM (HOP-62): 0%
inhibition at 10 µM (HT29): 1.01%
inhibition at 10 µM (LOX IMVI): 6.46%
inhibition at 10 µM (MALME-3M): 8.64%
inhibition at 10 µM (MDA-MB-435): 0%
inhibition at 10 µM (MDA-MB-468): 0%
inhibition at 10 µM (NCI-H226): 2.2%
inhibition at 10 µM (NCI-H460): 0%
inhibition at 10 µM (NCI/ADR-RES): 0%
inhibition at 10 µM (OVCAR-4): 0%
inhibition at 10 µM (OVCAR-5): 0%
inhibition at 10 µM (OVCAR-8): 9.58%
inhibition at 10 µM (PC-3): 5.12%
inhibition at 10 µM (RPMI-8226): 50.9%
inhibition at 10 µM (SF-539): 8.76%
inhibition at 10 µM (SK-MEL-28): 0%
inhibition at 10 µM (SK-MEL-5): 16.8%
inhibition at 10 µM (SK-OV-3): 0%
inhibition at 10 µM (SN12C): 3.32%
inhibition at 10 µM (SNB-19): 7.28%
inhibition at 10 µM (SR): 12.7%
inhibition at 10 µM (SW-620): 0%
inhibition at 10 µM (TK-10): 0%
inhibition at 10 µM (UACC-257): 0%
inhibition at 10 µM (UACC-62): 9.5%
inhibition at 10 µM (UO-31): 8.67%

COc1ccc(/C=C/C(=O)c2ccc(NC(=O)CSc3nnc(-c4ccc5[nH]c(-c6ccccc6)nc5c4)o3)cc2)cc1OC [Compound 7d, 2-{5-[2-Phenyl-1 H-benzo[d]imidazol-5-yl]-1,3,4-oxadiazol-2-ylthio}-N-{4-[(E)-3-(3,4-dimethoxyphenyl)acryloyl]phenyl}acetamide]
inhibition at 10 µM (ACHN): 0%
inhibition at 10 µM (BT-549): 10.4%
inhibition at 10 µM (CCRF-CEM): 9.62%
inhibition at 10 µM (EKVX): 0%
inhibition at 10 µM (HL-60(TB)): 0%
inhibition at 10 µM (HOP-62): 0%
inhibition at 10 µM (HT29): 0%
inhibition at 10 µM (LOX IMVI): 13.5%
inhibition at 10 µM (MALME-3M): 2.37%
inhibition at 10 µM (MDA-MB-435): 0%
inhibition at 10 µM (MDA-MB-468): 0%
inhibition at 10 µM (NCI-H226): 0%
inhibition at 10 µM (NCI-H460): 0%
inhibition at 10 µM (NCI/ADR-RES): 0%
inhibition at 10 µM (OVCAR-4): 0%
inhibition at 10 µM (OVCAR-5): 0%
inhibition at 10 µM (OVCAR-8): 0%
inhibition at 10 µM (PC-3): 0%
inhibition at 10 µM (RPMI-8226): 14.7%
inhibition at 10 µM (SF-539): 0.34%
inhibition at 10 µM (SK-MEL-28): 0%
inhibition at 10 µM (SK-MEL-5): 0%
inhibition at 10 µM (SK-OV-3): 0%
inhibition at 10 µM (SN12C): 0%
inhibition at 10 µM (SNB-19): 3.18%
inhibition at 10 µM (SR): 4.34%
inhibition at 10 µM (SW-620): 0%
inhibition at 10 µM (TK-10): 0%
inhibition at 10 µM (UACC-257): 0%
inhibition at 10 µM (UACC-62): 5.31%
inhibition at 10 µM (UO-31): 11%
